Laboratory results as given in ChEMBL document CHEMBL1201862, “PubChem BioAssay data set” (2004).
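A five-concentration, 48-hour dose response in 96-well plates underlies each endpoint, interpolated linearly between surrounding concentrations. GI50 marks 50% less growth.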 The source made the active and inactive calls. No stated cut-off is given here; in the data, active = GI50 up to about 1.1 µM and inactive = higher.

Tests used:
Test in all cases: inhibition of tumour cell growth, NCI panel, 48 h
SF-295 = test system: SF-295
SK-OV-3 = test system: SK-OV-3
SNB-75 = test system: SNB-75
HT-29 = test system: HT-29
SK-MEL-2 = test system: SK-MEL-2
UACC-257 = test system: UACC-257
A549 = test system: A549
SR = test system: SR
U-251 = test system: U-251
OVCAR-5 = test system: OVCAR-5
Hs-578T = test system: Hs-578T
HCC 2998 = test system: HCC 2998
KM12 = test system: KM12
OVCAR-3 = test system: OVCAR-3
UACC-62 = test system: UACC-62
CCRF-CEM = test system: CCRF-CEM
HOP-92 = test system: HOP-92
COLO 205 = test system: COLO 205
MOLT-4 = test system: MOLT-4

Measured: GI50

Cl/C(=N\c1cccc2ccccc12)N(c1ccccc1)c1ccccc1
inactive: SF-295 67.6 µM | SK-OV-3 > 100 µM | SNB-75 > 100 µM | HT-29 52.7 µM | SK-MEL-2 > 100 µM | UACC-257 70 µM | A549 56.5 µM | SR 25.4 µM | U-251 57.7 µM | OVCAR-5 > 100 µM | Hs-578T > 100 µM | HCC 2998 19.7 µM | KM12 75 µM | OVCAR-3 60.1 µM | UACC-62 75.2 µM

CC(=O)c1c(C)n(C)c2c1nnc1ccccc12
inactive: SF-295 40.2 µM | SK-OV-3 32.8 µM | HT-29 34.1 µM | CCRF-CEM 54.2 µM | SK-MEL-2 > 100 µM | UACC-257 > 100 µM | A549 32.2 µM | HOP-92 43.9 µM | COLO 205 30.9 µM | U-251 49.4 µM | Hs-578T 32.6 µM | HCC 2998 85.5 µM | KM12 47.6 µM | OVCAR-3 > 100 µM | UACC-62 23.1 µM

CCOP(=O)(OCC)c1cc(-c2ccccc2)ccc1N
inactive: SF-295 92.3 µM | SK-OV-3 > 100 µM | SNB-75 81.7 µM | HT-29 > 100 µM | CCRF-CEM > 100 µM | SK-MEL-2 > 100 µM | UACC-257 > 100 µM | A549 > 100 µM | HOP-92 34.6 µM | COLO 205 > 100 µM | U-251 > 100 µM | OVCAR-5 > 100 µM | Hs-578T 52 µM | HCC 2998 > 100 µM | KM12 > 100 µM | OVCAR-3 > 100 µM | MOLT-4 > 100 µM | UACC-62 > 100 µM

C=CC(=O)N1C/C(=C\c2ccc(N(C)C)cc2)C(=O)/C(=C/c2ccc(N(C)C)cc2)C1
inactive: SF-295 18.5 µM | SNB-75 > 100 µM | HT-29 10.4 µM | SK-MEL-2 > 100 µM | UACC-257 > 100 µM | A549 > 100 µM | HOP-92 > 100 µM | COLO 205 > 100 µM | U-251 > 100 µM | OVCAR-5 > 100 µM | Hs-578T 30 µM | HCC 2998 > 100 µM | KM12 8.67 µM | OVCAR-3 41.3 µM | MOLT-4 25.8 µM | UACC-62 44.3 µM

CCOC(=O)C1=COC(C)(CCc2ccccc2)CC1=O (stereo not drawn)
inactive: SF-295 > 100 µM | SK-OV-3 > 100 µM | SNB-75 > 100 µM | HT-29 56.2 µM | SK-MEL-2 > 100 µM | UACC-257 > 100 µM | A549 40.9 µM | COLO 205 > 100 µM | U-251 41.3 µM | OVCAR-5 > 100 µM | Hs-578T 45 µM | KM12 56.2 µM | OVCAR-3 80.2 µM | MOLT-4 43.2 µM | UACC-62 55.7 µM

CCOC(=O)c1c2cccccc2n2c(=O)cc(C)nc12
inactive: SF-295 > 100 µM | HT-29 > 100 µM | CCRF-CEM > 100 µM | SK-MEL-2 > 100 µM | UACC-257 > 100 µM | A549 > 100 µM | SR > 100 µM | COLO 205 > 100 µM | U-251 > 100 µM | OVCAR-5 > 100 µM | HCC 2998 > 100 µM | KM12 > 100 µM | OVCAR-3 > 100 µM | MOLT-4 > 100 µM | UACC-62 71.6 µM

C=CCc1ccccc1C1CC2(C(=O)OC)OC1C(C(=O)OC)=C2C(=O)OC (stereo not drawn)
inactive: SF-295 > 10 µM | SK-OV-3 > 10 µM | HT-29 > 10 µM | CCRF-CEM > 10 µM | SK-MEL-2 > 10 µM | UACC-257 > 10 µM | A549 > 10 µM | SR > 10 µM | COLO 205 > 10 µM | U-251 > 10 µM | OVCAR-5 > 10 µM | Hs-578T > 10 µM | HCC 2998 > 10 µM | KM12 > 10 µM | OVCAR-3 > 10 µM | MOLT-4 > 10 µM | UACC-62 > 10 µM

CC1=NN(c2nc(N)nc(C/C(N)=N/O)n2)C(C)(C)C1
inactive: SF-295 > 100 µM | SK-OV-3 > 100 µM | SNB-75 > 100 µM | HT-29 > 100 µM | CCRF-CEM > 100 µM | UACC-257 > 100 µM | A549 > 100 µM | HOP-92 > 100 µM | COLO 205 > 100 µM | U-251 > 100 µM | OVCAR-5 > 100 µM | Hs-578T > 100 µM | HCC 2998 > 100 µM | KM12 > 100 µM | OVCAR-3 > 100 µM | MOLT-4 > 100 µM | UACC-62 > 100 µM
